# Values of other authors, collected in patent publication US20070203078A1, “METHOD FOR THE TREATMENT AND DIAGNOSIS OF CERTAIN PSYCHIATRIC DISORDERS RELATED TO THE MENSTRUAL CYCLE” (THE REGENTS OF THE UNIVERSITY OF CALIFORNIA, priority 2004, published 2007).
# Target: T1, δ subunit-containing GABAARs (Mus musculus, UniProt P22933)
# T1 construct: tonic conductance mediated by δ subunit-containing GABAARs in several classes of neurons; host or cells: neurons (cerebellar granule cells, dentate gyrus granule cells and interneurons are named)
# T1 sequence (P22933 25-449): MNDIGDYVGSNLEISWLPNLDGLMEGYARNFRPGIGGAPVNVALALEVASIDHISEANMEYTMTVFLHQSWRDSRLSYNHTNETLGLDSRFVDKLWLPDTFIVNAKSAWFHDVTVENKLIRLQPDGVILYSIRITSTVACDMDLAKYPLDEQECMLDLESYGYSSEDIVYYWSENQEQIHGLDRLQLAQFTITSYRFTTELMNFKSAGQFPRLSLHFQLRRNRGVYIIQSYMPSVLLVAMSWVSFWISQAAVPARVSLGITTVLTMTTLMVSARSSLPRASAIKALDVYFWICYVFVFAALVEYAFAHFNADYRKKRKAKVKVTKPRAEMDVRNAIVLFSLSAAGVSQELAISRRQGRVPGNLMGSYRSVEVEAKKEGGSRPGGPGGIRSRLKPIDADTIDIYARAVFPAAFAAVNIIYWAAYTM
# Details: THDOC in the physiological range (10 nM)
structure (smiles),measurement,setting,value
C[C@]12CC[C@@H](O)C[C@H]1CC[C@@H]1[C@@H]2CC[C@]2(C)[C@@H](C(=O)CO)CC[C@@H]12 [THDOC],effect on synaptic currents,,no effect
same,effect on tonic conductance mediated by δ subunit-containing GABAARs,several classes of neurons,significantly potentiate
